Results on six compounds are retold here after US20030186289A1, “Model cell systems for screening of anti-hypertrophic therapeutics” (Myogen, Inc., priority 2002, published 2003).

Common to all, as to type: cell-based, rat
Test [1] relates to hypertrophic promoter activity (ANF, NFAT, MEF2, aSkAct, Myb). Put plainly: hypertrophic promoter-luciferase constructs in H9C2 cells, agonist dose-response survey. The settings on record: dose-response survey of agonists. The procedure: FIG. 5—H9C2 promoter activity is unresponsive to the adrenergic agonists isoproterenol, norepinephrine and forskolin. H9 cells were transfected with promoter-luciferase contructs as shown and as described in materials and methods. Transfected cells were treated with hypertrophic agonists as shown. Luciferase units were measured and plotted as fraction of untreated control vs concentration of agonist used. Symbols ANF, NFAT, MEF2, aSkAct, and Myb are used as in FIG. 3.
Plasmid constructs used. Gal4 DNA-binding domain constructs were generated by cloning cDNAs encoding constitutively active murine calcineurin (residues 1-398) and full length human MEF-2 into the pBIND expression vector (Promega, Inc.). VP16 fusion constructs were created by cloning full length human MCIP1 and HDAC5 cDNAs into the pACT expression vector (Promega, Inc.). […] Promoter reporter constructs were generated by cloning the promoter regions of ANF, α-skeletal actin, IL-2 (with multiple NFAT binding sites) and myoglobin genes upstream of a promoter-less firefly luciferase open reading frame (pGL3 plasmid, Promega, Inc.). […]
Luciferase measurement. […] Briefly, cells were washed in serum- and phenol red-free medium, then lysed in the presence of luciferase substrate to produce a long half-life “glow” luminescence. Relative light intensity was quantitated on a Fusion Universal Microplate Analyzer (Packard).

The subject of a further test is MEF-2 reporter. Description: 3×MEF2 promoter-luciferase reporter in H9C2 cells. Particulars: for MEF-2 reporter expression: agonist 100 μM. The text has this:
Plasmid constructs used. Gal4 DNA-binding domain constructs were generated by cloning cDNAs encoding constitutively active murine calcineurin (residues 1-398) and full length human MEF-2 into the pBIND expression vector (Promega, Inc.). VP16 fusion constructs were created by cloning full length human MCIP1 and HDAC5 cDNAs into the pACT expression vector (Promega, Inc.). In assays, Gal4 and VP16 fusion constructs were cotransfected with pG5-luc reporter (Promega), a firefly luciferase gene under control of a multimerized Gal4 promoter sequence. Promoter reporter constructs were generated by cloning the promoter regions of ANF, α-skeletal actin, IL-2 (with multiple NFAT binding sites) and myoglobin genes upstream of a promoter-less firefly luciferase open reading frame (pGL3 plasmid, Promega, Inc.). Similarly, three consensus MEF-2 binding sites or a single TATA element were cloned into pGL3. HDAC5-GFP construct was a gift from E. Olson, UT Southwestern Medical Center, Dallas Tex.
Cells culture and transient transfections. All muscle cell lines were obtained from the American Type Culture Collection (ATCC). Cells were cultured under conditions recommended by ATCC. Transient transfections were carried out in 96-well plates (5000 cells/well) using the Fugene transfection reagent (Roche), as per manufacturer's instructions. […] Forty-eight hours post-transfection, cells were processed for luciferase measurements.
Adenoviral constructs. Recombinant adenovirus α-skeletal actin-luc, and 3×MEF2-luc were constructed using the Adeasy vector system (Qbiogene) according to manufacturers instructions. Recombinant adenovirus HDAC5 and HDAC5-S259/498A were provided by E. Olson. Recombinant adenovirus MCIPexon4 was provided by S. Williams. Recombinant adenovirus β-galactosidase was from Qbiogene. Cells were plated in 96-well plates, and 24 hr after plating, were infected with recombinant adenovirus at moi of 50 in serum free media for three hrs. Forty-eight hrs after infection, the cells were lysed and luciferase levels were measured as above.
Luciferase measurement. Transiently transfected or adenovirus transfected cells were processed for luciferase activity using the Luc-Lite assay kit (Packard), as per manufacturer's instructions. Briefly, cells were washed in serum- and phenol red-free medium, then lysed in the presence of luciferase substrate to produce a long half-life “glow” luminescence. Relative light intensity was quantitated on a Fusion Universal Microplate Analyzer (Packard).

Test [2] relates to alpha skeletal actin promoter. Put plainly: alpha skeletal actin promoter-luciferase reporter in H9C2 cells. (A reporter such as luciferase makes a cellular process visible.)
Method: Cells culture and transient transfections. […] Cells were cultured under conditions recommended by ATCC. Transient transfections were carried out in 96-well plates (5000 cells/well) using the Fugene transfection reagent (Roche), as per manufacturer's instructions. […] Forty-eight hours post-transfection, cells were processed for luciferase measurements.
Adenoviral constructs. Recombinant adenovirus α-skeletal actin-luc, and 3×MEF2-luc were constructed using the Adeasy vector system (Qbiogene) according to manufacturers instructions. […] Recombinant adenovirus β-galactosidase was from Qbiogene. Cells were plated in 96-well plates, and 24 hr after plating, were infected with recombinant adenovirus at moi of 50 in serum free media for three hrs. Forty-eight hrs after infection, the cells were lysed and luciferase levels were measured as above.
Where [3] appears, read: drug added at transfection or expression construct, 48 h.
Setting [4] is: recombinant adenovirus infection, moi of 50.

For `CC(C)NCC(O)c1ccc(O)c(O)c1` (centres unmarked) [isoproterenol], the hypertrophic promoter activity result in test [1] is recorded as “relatively unaffected”.
As for `CNC[C@H](O)c1cccc(O)c1` [phenylephrine], the MEF-2 reporter expression result in the test with MEF-2 reporter is “unaffected”.
Regarding `NC[C@H](O)c1ccc(O)c(O)c1` [norepinephrine], the hypertrophic promoter activity result in test [1] is on record as “relatively unaffected”.
On to “HDAC: anti-hypertrophic gene product HDAC5, MEF-2 inhibitor, expressed by transfection or adenovirus”, for which the “expression of MEF-2 reporter” value in the test with MEF-2 reporter (setting [3]) is on record as “significantly reduced”. Further, the “expression of alpha skeletal actin reporter” value in test [2] (setting [3]) is listed as “significantly reduced”.
Turning to “HDAC5-S259/498A: mutant of HDAC5 where serine residues 259 and 498 are replaced by alanine; super-repressor of the MEF-2 pathway”, in the test on MEF-2 reporter (setting [4]), the “repression of the 3×MEF2 promoter” value is listed as “most effective repressor”. Further, the “repression of the alpha-skeletal-actin promoter” value in test [2] (setting [4]) was “most effective repressor”.
In the case of `CC[C@H](C)[C@H](NC(=O)[C@H](CC(=O)O)NC(=O)[C@H](CC(C)C)NC(=O)[C@H](Cc1c[nH]cn1)NC(=O)[C@@H]1CSSC[C@H](N)C(=O)N[C@@H](CO)C(=O)N[C@H]2CSSC[C@H](NC(=O)[C@H](CCC(=O)O)NC(=O)[C@H](CCCCN)NC(=O)[C@H](CC(=O)O)NC(=O)[C@H](CCSC)NC(=O)[C@H](CC(C)C)NC(=O)[C@H](CO)NC(=O)[C@H](CO)NC2=O)C(=O)N[C@@H](C(C)C)C(=O)N[C@@H](Cc2ccc(O)cc2)C(=O)N[C@@H](Cc2ccccc2)C(=O)N1)C(=O)N[C@H](C(=O)N[C@@H](Cc1c[nH]c2ccccc12)C(=O)O)[C@@H](C)CC` [endothelin], the MEF-2 reporter expression entry with MEF-2 reporter is “unaffected”.
